According to patent publication US7399775B2, “β-amyloid protein production/secretion inhibitor” (Daiichi Pharmaceutical Co., Ltd., priority 2001, dated 2008):
Read-outs that look alike come from different tables or passages of the source.

Assays:
[1] = test system: β-amyloid protein (Aβ) production/secretion in E35 cells (H4 cells transfected with APP751); assay: Cell-based assay for inhibition of production or secretion of β-amyloid protein (sandwich ELISA of Aβ in culture medium); parameters: species or system human; details: 24 h with compound, Aβ in medium by sandwich ELISA, read-out: Activity (EC50 class, inhibition of Aβ secreted in culture medium)
Description: Cell-Based Assay for Screening of a Compound Which Inhibits Production or Secretion of β-Amyloid Protein
E35 cells which were established by transfecting APP751 gene which is a wild type human β-amyloid protein precursor into human glioma cells (H4 cells), were used to analyze inhibitory activity of a compound against β-amyloid production. The amount of β protein (Aβ) secreted in a culture medium was measured by the sandwich enzyme-linked imunosorbent assay.
E35 cells were seeded in Dulbecco's Modified Eagle's Medium containing 10% inactivated fetal bovine serum on 96-well plates and cultured in humidified air and 5% CO2 at 37° C. in a CO2 incubator. Twenty-four hours after seeding of the cells, a test compound dissolved in DMSO was added to the medium. The DMSO solution of the compound was prepared so as to give the final concentration of DMSO in the medium 0.05%. The cells were cultured for additional twenty-four hours, and then the cultured medium was collected. The medium collected was applied to a 96-well ELISA plate on which a monoclonal antibody 25-1, which recognized Aβ25-35, was immobilized, followed by the incubation at 4° C. for 16 to 20 hours. After washing with a phosphate buffer (pH 7.4), a biotinylated monoclonal antibody MA32-40, which recognizes Aβ1-8, was added to the plate, and the plate was incubated at 4° C. for 2 hours. Then alkaline phosphatase-conjugated streptavidin was added to the plate. Alkaline phosphatase activity was measured by a […] assay using BlouPhos (manufactured by KPL) as a substrate. An amount of Aβ in the medium was calculated using a calibration curve separately created. EC50 of the test compound was presented as the concentration that gives 50% inhibitory activity compared to the control cells which were not treated with the compound.

| SMILES | EC50 ([1]; Homo sapiens, 24 h) | EC50 [1] | melting point |
| --- | --- | --- | --- |
| CCCCC(c1cc(F)ccc1F)[S+]([O-])c1ccc(Cl)cc1 (single isomer, unassigned) [Example 2 (Isomer 2-B), 2-[1-[(4-Chlorophenyl)sulfinyl]pentyl]-1,4-difluorobenzene] | 500 to 5000 nM | – | – |
| CSCCCC(C)C(c1cc(F)ccc1F)S(=O)(=O)c1ccc(Cl)cc1 (single isomer, unassigned) [Example 43 (Isomer 43-B), 2-[1-[(4-Chlorophenyl)sulfonyl]-2-methyl-5-(methylthio)pentyl]-1,4-difluorobenzene] | – | 50 to 500 nM | – |
| CCCC=C(c1cc(F)ccc1F)S(=O)(=O)c1ccc(Cl)cc1 [Example 12, 2-[1-[(4-Chlorophenyl)sulfonyl]-1-penten-1-yl]-1,4-difluorobenzene] | 500 to 5000 nM | – | 95.5 to 97 °C |
| CCC=CC(c1cc(F)ccc1F)S(=O)(=O)c1ccc(Cl)cc1 (stereo not drawn) [Example 14, 2-[1-[(4-Chlorophenyl)sulfonyl]-2-penten-1-yl]-1,4-difluorobenzene] | 500 to 5000 nM | – | 99 to 100 °C |
| CC(CCCCO)(c1cc(F)ccc1F)S(=O)(=O)c1ccc(Cl)cc1 (stereo not drawn) [Example 17, 5-(4-Chlorophenylsulfonyl)-5-(2,5-difluorophenyl)-1-hexanol] | 500 to 5000 nM | – | – |
| O=S(=O)(c1ccc(Cl)cc1)C(CCOCCO)c1cc(F)ccc1F (stereo not drawn) [Example 35, 2-[3-[(4-Chlorophenyl)sulfonyl]-3-(2,5-difluorophenyl)propoxy]ethanol] | 500 to 5000 nM | – | 41 to 46 °C |
| O=S(=O)(c1ccc(Cl)cc1)C(c1cc(F)ccc1F)C1CCCCC1 (stereo not drawn) [Example 36, 2-[[(4-Chlorophenyl)sulfonyl](cylcohexyl)methyl]-1,4-difluorobenzene] | 50 to 500 nM | – | 107 to 109 °C |
| CC(CCCS(C)(=O)=O)C(c1cc(F)ccc1F)S(=O)(=O)c1ccc(Cl)cc1 (stereo not drawn) [Example 46, 2-[1-[(4-Chlorophenyl)sulfonyl]-2-methyl-5-(methylsulfonyl)pentyl]-1,4-difluorobenzene] | 50 to 500 nM | – | 115 to 117 °C |
| CC(CCCS(C)(=O)=O)C(c1cc(F)ccc1F)S(=O)(=O)c1ccc(Cl)cc1 (stereo not drawn) [Example 47, 2-[1-[(4-Chlorophenyl)sulfonyl]-2-methyl-5-(methylsulfonyl)pentyl]-1,4-difluorobenzene] | – | ≤ 50 nM | 142 to 144 °C |
| O=S(=O)(c1ccc(Cl)cc1)C(c1cccnc1)c1cc(F)ccc1F (stereo not drawn) [Example 141, 3-[[(4-Chlorophenyl)sulfonyl]-(2,5-difluorophenyl)methyl]pyridine] | 50 to 500 nM | – | 130 to 131 °C |
| O=S(=O)(c1ccc(Cl)cc1)C(c1ccncc1)c1cc(F)ccc1F (stereo not drawn) [Example 142, 4-[[(4-Chlorophenyl)sulfonyl]-(2,5-difluorophenyl)methyl]pyridine] | 50 to 500 nM | – | 126 to 127 °C |
| O=S(=O)(c1ccc(Cl)cc1)C(c1cc(F)ccc1F)C1CCOCC1 (stereo not drawn) [Example 287, 4-[[(4-Chlorophenyl)sulfonyl](2,5-difluorophenyl)methyl]tetrahydropyran] | 50 to 500 nM | – | 150 to 152 °C |
| O=S(=O)(c1ccc(Cl)cc1)C(c1cc(F)ccc1F)C1CCSCC1 (stereo not drawn) [Example 288, 4-[[(4-Chlorophenyl)sulfonyl](2,5-difluorophenyl)methyl]tetrahydrothiopyran] | 50 to 500 nM | – | 150 to 152 °C |
| O=S(=O)(c1ccc(Cl)cc1)C(c1ccc(C2OCCO2)cn1)c1cc(F)ccc1F (stereo not drawn) [Example 330, 2-[(4-Chlorophenylsulfonyl)-(2,5-difluorophenyl)methyl]-5-(1,3-dioxolan-2-yl)pyridine] | 50 to 500 nM | – | 167 to 168 °C |
| O=S(=O)(c1ccc(Cl)cc1)C(c1ccc(CO)cn1)c1cc(F)ccc1F (stereo not drawn) [Example 331, 2-[(4-chlorophenylsulfonyl)(2,5-difluorophenyl)methyl]-5-(hydroxymethyl)pyridine] | 50 to 500 nM | – | 151 to 152 °C |
| O=C(O)CCc1ccc(C(c2cc(F)ccc2F)S(=O)(=O)c2ccc(Cl)cc2)nc1 (stereo not drawn) [Example 334, 3-[6-[(4-Chlorophenylsulfonyl)-(2,5-difluorophenyl)methyl]pyridin-3-yl]propionic Acid] | 50 to 500 nM | – | 158 to 160 °C |
| CS(=O)(=O)NCc1ccc(C(c2cc(F)ccc2F)S(=O)(=O)c2ccc(Cl)cc2)nc1 (stereo not drawn) [Example 370, N-[[6-(4-Chlorophenylsulfonyl)(2,5-difluorophenyl)methylpyridin-3-yl]methyl]methanesulfonamide] | 50 to 500 nM | – | – |
| COC(=O)OCc1ccc(C(c2cc(F)ccc2F)S(=O)(=O)c2ccc(Cl)cc2)nc1 (stereo not drawn) [Example 372, [6-(4-Chlorophenylsulfonyl)(2,5-difluorophenyl)methylpyridin-3-yl]methyl Methyl Carbonate] | 50 to 500 nM | – | – |

Next, values leading:

| EC50 ([1]; Homo sapiens, 24 h) | EC50 [1] | melting point | SMILES |
| --- | --- | --- | --- |
| 50 to 500 nM | – | – | CSCCCC(C)C(c1cc(F)ccc1F)S(=O)(=O)c1ccc(Cl)cc1 (single isomer, unassigned) [Example 43 (Isomer 43-A), 2-[1-[(4-Chlorophenyl)sulfonyl]-2-methyl-5-(methylthio)pentyl]-1,4-difluorobenzene] |
| 50 to 500 nM | – | – | CCCCC(c1cc(F)ccc1F)S(=O)(=O)c1ccc(Cl)cc1 (stereo not drawn) [Example 3, 2-[1-[(4-Chlorophenyl)sulfonyl]pentyl]-1,4-difluorobenzene] |
| 50 to 500 nM | – | 134.5 to 135 °C | CCCC(O)C(c1cc(F)ccc1F)S(=O)(=O)c1ccc(Cl)cc1 (stereo not drawn) [Example 10, 1-[(4-Chlorophenyl)sulfonyl]-1-(2,5-difluorophenyl)-2-pentanol] |
| 50 to 500 nM | – | – | CS(=O)(=O)CCCCC(c1cc(F)ccc1F)S(=O)(=O)c1ccc(Cl)cc1 (stereo not drawn) [Example 27 (Compound A), 2-[1-[(4-Chlorophenyl)sulfonyl]-5-(methylsulfonyl)pentyl]-1,4-difluorobenzene] |
| 50 to 500 nM | – | 84 to 86 °C | O=S(=O)(c1ccc(Cl)cc1)C(CCCCO)c1cc(F)ccc1F (stereo not drawn) [Example 29, 5-[(4-Chlorophenyl)sulfonyl]-5-(2,5-difluorophenyl)-1-pentanol] |
| 50 to 500 nM | – | 98 to 99 °C | O=S(=O)(c1ccc(Cl)cc1)C(CCCCCO)c1cc(F)ccc1F (stereo not drawn) [Example 32, 6-[(4-Chlorophenyl)sulfonyl]-6-(2,5-difluorophenyl)-1-hexanol] |
| ≤ 50 nM | – | 137 to 139 °C | O=S(=O)(c1ccc(Cl)cc1)C1(c2cc(F)ccc2F)CCCCC1 [Example 33, 2-[1-[(4-Chlorophenyl)sulfonyl]cyclohexyl]-1,4-difluorobenzene] |
| ≤ 50 nM | – | 107 to 112 °C | CC(CCC[S+](C)[O-])C(c1cc(F)ccc1F)S(=O)(=O)c1ccc(Cl)cc1 (stereo not drawn) [Example 45, 2-[1-[(4-Chlorophenyl)sulfonyl]-2-methyl-5-(methylsulfinyl)pentyl]-1,4-difluorobenzene] |
| ≤ 50 nM | – | 157 to 160 °C | O=S(=O)(c1ccc(Cl)cc1)C1(c2cc(F)ccc2F)CCOCC1 [Example 48, 4-[(4-Chlorophenyl)sulfonyl]-4-(2,5-difluorophenyl)tetrahydropyrane] |
| ≤ 50 nM | – | 142 to 143 °C | Cc1cccnc1C(c1cc(F)ccc1F)S(=O)(=O)c1ccc(Cl)cc1 (stereo not drawn) [Example 136, 2-[[(4-Chlorophenyl)sulfonyl]-(2,5-difluorophenyl)methyl]-3-methylpyridine] |
| ≤ 50 nM | – | – | [O-][S+](c1ccc(Cl)cc1)C(c1cc(F)ccc1F)c1ccncc1Cl (stereo not drawn) [Example 344, 3-Chloro-4-[(4-chlorophenylsulfinyl)-(2,5-difluorophenyl)methyl]pyridine] |
| ≤ 50 nM | – | – | O=S(=O)(c1ccc(Cl)cc1)C(c1cc(F)ccc1F)c1cc(Cl)ncc1Cl (stereo not drawn) [Example 345, 2,5-Dichloro-4-[(4-chlorophenylsulfonyl)-(2,5-difluorophenyl)methyl]pyridine 0.5 hydrate] |
| ≤ 50 nM | – | – | O=S(=O)(c1ccc(Cl)cc1)C(c1cc(F)ccc1F)c1cc(NCC[N+]2([O-])CCOCC2)ncc1Cl (stereo not drawn) [Example 349, 4-[2-[5-Chloro-4-[(4-chlorophenylsulfonyl)-(2,5-difluorophenyl)methyl]pyridin-2-yl]aminoethyl]morpholine N-Oxide] |
| ≤ 50 nM | – | – | CNCCN(C)c1cc(C(c2cc(F)ccc2F)S(=O)(=O)c2ccc(Cl)cc2)c(Cl)cn1 (stereo not drawn) [Example 397, 5-Chloro-4-[(4-chlorophenylsulfonyl)-(2,5-difluorophenyl)methyl]-2-[N-methyl-N-[2-(methylamino)ethyl]amino]pyridine] |
| ≤ 50 nM | – | – | O=S(=O)(c1ccc(Cl)cc1)C(c1cc(F)ccc1F)c1cc(N2CCC[C@H]2CO)ncc1Cl (stereo partly drawn) [Example 399] |
| ≤ 50 nM | – | – | NCC1CN(c2cc(C(c3cc(F)ccc3F)S(=O)(=O)c3ccc(Cl)cc3)c(Cl)cn2)CCO1 (stereo not drawn) [Example 402, 2-Aminomethyl-4-[5-chloro-4-[(4-chlorophenylsulfonyl)-(2,5-difluorophenyl)methyl]pyridin-2-yl]morpholine] |
